4 compounds from ChEMBL document CHEMBL1127558, “Synthesis and characterization of selective fluorescent ligands for the neurokinin NK2 receptor” (J Med Chem, 1994) can be followed below.

The target in this test is T1, Substance-K receptor (Homo sapiens, UniProt P21452).
T1 sequence (P21452 whole entry): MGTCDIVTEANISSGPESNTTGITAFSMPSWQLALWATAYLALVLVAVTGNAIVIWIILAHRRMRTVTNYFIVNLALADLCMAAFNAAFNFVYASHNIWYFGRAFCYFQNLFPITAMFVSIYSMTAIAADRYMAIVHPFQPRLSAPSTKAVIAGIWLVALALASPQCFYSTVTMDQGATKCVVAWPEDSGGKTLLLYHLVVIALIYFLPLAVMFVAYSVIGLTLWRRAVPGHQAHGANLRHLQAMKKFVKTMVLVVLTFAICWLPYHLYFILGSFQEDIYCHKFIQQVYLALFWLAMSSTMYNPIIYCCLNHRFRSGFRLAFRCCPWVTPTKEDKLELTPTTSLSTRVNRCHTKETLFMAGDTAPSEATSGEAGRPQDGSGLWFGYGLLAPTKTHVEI
Briefly: Binding affinity against human NK2 receptors expressed in CHO cells using [3H]GR-100679 as radioligand. It counts as cell-based.

Molecules are shown by their SMILES. Numbered stars: 1 amine (or outer) side, 2 acyl side, 3 side chain; on linkers, the order of the positions; unused ones are H or OH. Square brackets hold non-standard residues; d marks the D form. Peptide text beside a SMILES is read from it. * marks the point of attachment. X1 = C[C@@H](C(=O)[*:2])N(c1ccc([N+](=O)[O-])c2nonc12)[*:1]; Nle = CCCC[C@H](N)C(=O)O; Bz = O=C(c1ccccc1)*

As for `CCCC[C@H](NC(=O)[C@@H]1CCCN1C(=O)[C@H]1CCCN1C(=O)[C@H](Cc1ccccc1)NC(=O)[C@@H](Cc1c[nH]c2ccccc12)NC(=O)[C@H](C)NC(=O)[C@H](C)/N=C(/S)Nc1ccc2c(c1)C(=O)OC21c2ccc(O)cc2Oc2cc(O)ccc21)C(N)=O`, under “cho”, the “Log Ki” value is -5.99.
In the case of `CCCC[C@H](NC(=O)[C@@H]1CCCN1C(=O)[C@H]1CCCN1C(=O)[C@H](Cc1ccccc1)NC(=O)[C@@H](Cc1c[nH]c2ccccc12)NC(=O)[C@H](C)NC(=O)[C@H](CCCCNC(=S)Nc1ccc2c(c1)C(=O)OC21c2ccc(O)cc2Oc2cc(O)ccc21)NC(=O)c1ccccc1)C(N)=O`, affinity was put at a Ki of 24.5 nM.
The same measure, in the same setting: next, `CCCC[C@H](NC(=O)[C@@H]1CCCN1C(=O)[C@@H]1CCCN1C(=O)[C@H](Cc1ccccc1)NC(=O)[C@H](Cc1c[nH]c2ccccc12)NC(=O)[C@H](C)NC(=O)[C@H](C)NC(=O)c1ccccc1)C(N)=O` (Bz-AAWFPP[Nle]-NH2): 0.155 nM; `CCCC[C@H](NC(=O)[C@@H]1CCCN1C(=O)[C@@H]1CCCN1C(=O)[C@H](Cc1ccccc1)NC(=O)[C@H](Cc1c[nH]c2ccccc12)NC(=O)[C@H](C)NC(=O)[C@H](C)Nc1ccc([N+](=O)[O-])c2nonc12)C(N)=O` (H-[X1]AWFPP[Nle]-NH2): 87.1 nM.
